Assay results taken from patent US10323027B2, “2,3-dihydro-4H-1,3-benzoxazin-4-one derivatives as modulators of cholinergic muscarinic M1 receptor” (Takeda Pharmaceutical Company Limited, priority 2015, dated 2019).
Structures can show the parent of a compound that is named as a salt.

Tests used:
[1] = biological target: T1, human M1 receptor (hCHRM1) (Homo sapiens, UniProt P11229); assay: Measurement of M1 receptor positive allosteric modulator (M1PAM) activity, Ca2+ fluorescence by FLIPRtetra (Experimental Example 1); format: cell-based; details: for activity (%) at 10 μM: 10 μM test compound, 100% = acetylcholine 1 μM, 0% = DMSO; for EC50: inflection point of concentration-dependent curve, in presence of acetylcholine at EC20 (0.8-1.0 nM), CHO-K1 cells expressing hCHRM1, read-out: IP value
T1 construct: expressed in transfected cells
T1 sequence (P11229 1-460): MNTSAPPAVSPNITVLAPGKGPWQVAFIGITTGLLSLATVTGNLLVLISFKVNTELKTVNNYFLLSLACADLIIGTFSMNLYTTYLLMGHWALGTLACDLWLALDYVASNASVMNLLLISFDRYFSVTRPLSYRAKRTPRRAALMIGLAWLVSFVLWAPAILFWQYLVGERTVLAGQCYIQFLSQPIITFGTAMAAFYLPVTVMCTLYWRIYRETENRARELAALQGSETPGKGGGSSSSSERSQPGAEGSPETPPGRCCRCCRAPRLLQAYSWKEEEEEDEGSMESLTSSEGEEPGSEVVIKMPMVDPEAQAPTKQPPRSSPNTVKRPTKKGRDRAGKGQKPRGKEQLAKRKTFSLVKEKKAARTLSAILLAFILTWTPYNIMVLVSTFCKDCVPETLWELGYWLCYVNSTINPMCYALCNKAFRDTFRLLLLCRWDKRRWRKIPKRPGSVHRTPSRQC
In short: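 CHO-K1 cells stably expressing hCHRM1, loaded with Fluo-4 AM (probenecid), received compound with acetylcholine at EC20 (final 0.8-1.0 nM); Ca2+ fluorescence read 1 min by FLIPRtetra. Activity scaled 0% (DMSO) to 100% (1 μM acetylcholine); IP from inflection point of concentration curve.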

[2] = tested on: Myo-Inositol 1 Phosphate (IP1); assay: Measurement of myo-inositol 1 phosphate (IP1) in rat hippocampi after oral administration (Experimental Example 3); format: in vivo, male Long-Evans rats; details: IP1 production (IP1/protein) in rat hippocampi; 10 mg/kg oral; relative to Vehicle administration group as 100%
Description: Measurement of Myo-Inositol 1 Phosphate (IP1)
Animals used were male Long-Evans rats. They were used after acclimation for at least 1 week. Test compounds were suspended in 0.5% (w/v) aqueous methylcellulose solution, and the suspension was orally administered to the rats. After a given time, lithium chloride dissolved in saline was subcutaneously administered into the rats. After a given time, their bilateral hippocampi were isolated from the rats, and the wet weight thereof was measured. The isolated hippocampi were homogenized with HEPES (registered trademark) buffer, followed by centrifugation. The IP1 and protein concentrations in the supernatant were measured by IP-One HTRF assay kit (Cisbio Bioassays) and BCA protein assay kit (Thermo Scientific), respectively. The level of the IP1 production was expressed as the ratio of the concentration of IP1 to that of protein. The increase rate of the IP1 production was shown as a relative value when Vehicle administration group as 100%.

[3] = tested on: Scopolamine-induced memory deficits models; assay: Novel object recognition test (Experimental Example 4); format: in vivo, male Long-Evans rats; details: scopolamine 0.1 mg/kg s.c., retention trial 4 hr after acquisition, mean±standard error
Description: Novel Object Recognition Test Novel object recognition test is comprised of two trials called the acquisition and the retention trials. Scopolamine-induced memory deficits models were used for the test, and animals used were male Long-Evans rats. On the day before the test, for acclimation, the rats were allowed to freely move about the test box (40×40×50 cm) for 10 minutes. On the test day, the rats were acclimated to the test room for about 1 hr prior to the test. The test compounds were orally administered to the rats in a single dose a given time before the acquisition trial. For induction of learning and memory deficits, scopolamine (0.1 mg/kg) was subcutaneously administered into the rats 30 min before the acquisition trial. For the acquisition trial, two identical objects (A1, A2) were placed in the test box. The rats were put in the test box for 3 min, and the duration exploring each object was measured. The retention trial was performed 4 hr after the acquisition trial. For the retention trial, one familiar object (A3) used for the acquisition trial and one novel object (B) having a different shape from A3 were placed in the test box. After setting the objects, the rats were introduced into the test box and retention trial was performed for 3 min. The duration for exploring each object in the acquisition trial and the retention trial was measured, and the exploration rate of novel object was calculated. The exploration rate of novel object was expressed as (the duration exploring the novel object)/[(the duration exploring the novel object)+(the duration exploring the familiar object)]×100(%) at mean±standard error.

[4] = biological target: T1, human M1 receptor (hCHRM1); assay: Measurement of M1 receptor positive allosteric modulator (M1PAM) activity, Ca2+ fluorescence by FDSS/μ cell (Experimental Example 2); format: cell-based; details: for activity (%) at 10 μM: 10 μM test compound, 100% = acetylcholine 1 μM, 0% = DMSO; for EC50: inflection point of concentration-dependent curve, in presence of acetylcholine at EC20 (0.8-1.0 nM), CHO-K1 cells expressing hCHRM1, read-out: IP value
Description: Measurement of M1 Receptor Positive Allosteric Modulator (M1PAM) Activity
The activity of a test compound in the presence of acetylcholine at EC20 concentration (final concentration 0.8-1.0 nM), which affords an action corresponding to about 20% of the maximum activity, was measured as PAM activity. The method is as follows. CHO-K1 cells stably expressing a human M1 receptor (hCHRM1) were plated on a 384-well black clear bottom plate (BD Falcon) at 5,000 cells/well, and cultured in an incubator at 37° C., 5% CO2 for 1 day. The medium in the cell plate was removed, and a dye solution (prepared by adding Recording medium (DOJINDO LABORATORIES) to a final concentration of 1×concentration, Fluo-4 AM (DOJINDO LABORATORIES) to a final concentration of 2.5 μg/mL, Pluronic F127 (DOJINDO LABORATORIES) to a final concentration of 0.08%, and probenecid (DOJINDO LABORATORIES) to a final concentration of 1.25 mM to assay buffer (HBSS (Invitrogen), 20 mM HEPES (Invitrogen), 0.1% BSA (Wako Pure Chemical Industries, Ltd.))) was added at 30 μL/well. The cells were left standing in the incubator at 37° C., 5% CO2 for 30 min, and further left standing at room temperature for 30 min. A test compound prepared by diluting with assay buffer containing 3.2-4.0 nM acetylcholine was added at 10 μL/well, and the fluorescence was measured by FDSS/μ cell (Hamamatsu Photonics K.K.) for 1 min every 1 second. With the definition that the amount of change in the fluorescence on addition of acetylcholine (final concentration 1 μM) is 100% and that on addition of DMSO instead of a test compound is 0%, the activity (%) of the test compound was calculated, and the inflection point in the concentration-dependent curve of the test compound was calculated as IP values.

Row | activity (%) at 10 μM [1] | EC50 [1] | activity (%) at 10 μM [4] | EC50 [4] | Compound | increase rate (%) at 10 mg/kg [2] | exploration rate of novel object (%) ([3]; 1 mg/kg oral) | exploration rate of novel object (%) ([3]; 3 mg/kg oral)
1 | 88% | 6 nM | – | – | Cc1c(Cc2ccc(-n3cccn3)nc2)cc2c(c1F)OCN([C@H]1CCC[C@@H]1O)C2=O [Example 13, 8-fluoro-3-((1S,2S)-2-hydroxycyclopentyl)-7-methyl-6-((6-(1H-pyrazol-1-yl)pyridin-3-yl)methyl)-2,3-dihydro-4H-1,3-benzoxazin-4-one] | 102% | 60.2±3.0% | –
2 | – | – | 99% | 4.5 nM | Cc1cc2c(cc1Cc1ccc(-c3ccn(C)n3)cc1)C(=O)N([C@H]1COCC[C@@H]1O)CO2 [Example 104, 3-((3S,4S)-4-hydroxytetrahydro-2H-pyran-3-yl)-7-methyl-6-(4-(1-methyl-1H-pyrazol-3-yl)benzyl)-2,3-dihydro-4H-1,3-benzoxazin-4-one] | 86% | – | 61.6±2.2%
3 | – | – | 99% | 5.3 nM | Cc1c(Cc2ccc(-c3ccn(C)n3)cc2)cc2c(c1F)OCN([C@H]1COCC[C@@H]1O)C2=O [Example 108, 1,5-anhydro-2,4-dideoxy-2-(8-fluoro-7-methyl-6-(4-(1-methyl-1H-pyrazol-3-yl)benzyl)-4-oxo-2H-1,3-benzoxazin-3(4H)-yl)-L-threo-pentitol] | – | – | –
4 | – | – | 105% | 4 nM | CCn1ccc(-c2ccc(Cc3cc4c(c(F)c3C)OCN([C@H]3CCC[C@@H]3O)C4=O)cn2)n1 [Example 91, 6-((6-(1-ethyl-1H-pyrazol-3-yl)pyridin-3-yl)methyl)-8-fluoro-3-((1S,2S)-2-hydroxycyclopentyl)-7-methyl-2,3-dihydro-4H-1,3-benzoxazin-4-one] | – | – | –

Second part, the compound before the results:

Row | Compound | activity (%) at 10 μM [1] | EC50 [1] | activity (%) at 10 μM [4] | EC50 [4] | increase rate (%) at 10 mg/kg [2] | exploration rate of novel object (%) ([3]; 1 mg/kg oral) | exploration rate of novel object (%) ([3]; 3 mg/kg oral)
5 | Cc1ccc(Cc2cc3c(cc2C)OCN([C@H]2CCCC[C@@H]2O)C3=O)cn1 (single isomer, unassigned) [Example 28, 3-(trans-2-hydroxycyclohexyl)-7-methyl-6-((6-methylpyridin-3-yl)methyl)-2,3-dihydro-4H-1,3-benzoxazin-4-one monohydrochloride (optical isomer)] | 108% | 20 nM | – | – | 36% | – | –
6 | Cc1c(Cc2ccc(Cl)nc2)cc2c(c1Cl)OCN([C@H]1CCC[C@@H]1O)C2=O [Example 24, 8-chloro-6-((6-chloropyridin-3-yl)methyl)-3-((1S,2S)-2-hydroxycyclopentyl)-7-methyl-2,3-dihydro-4H-1,3-benzoxazin-4-one] | 94% | 3.1 nM | – | – | 26% | – | 63.5±2.4%
7 | Cc1cc2c(cc1Cc1ccc(Cl)nc1)C(=O)N([C@H]1CCCC[C@@H]1O)CO2 [Example 140, 6-((6-chloropyridin-3-yl)methyl)-3-((1S,2S)-2-hydroxycyclohexyl)-7-methyl-2,3-dihydro-4H-1,3-benzoxazin-4-one] | – | – | 101% | 10 nM | – | – | –
